Consider 10 compounds from ChEMBL document CHEMBL5352455, “Discovery of novel N-acylpyrazoles as potent and selective thrombin inhibitors” (Eur J Med Chem, 2023).

The nature of data set [1]: in vitro. The note with it: CD-1, mouse, plasma.
Description: Stability in CD-1 mouse plasma assessed as half life
Data set [2] can be described thus: in vitro. To be noted: Sprague-Dawley, rat, plasma.
Description: Stability in Sprague-Dawley rat plasma assessed as half life
The nature of data set [3]: in vitro. The note with it: human, plasma.
Description: Stability in human plasma assessed as half life
The nature of data set [4]: AUC in CD-1 mouse at 0.5 mg/kg, iv measured after 24 hrs by LC-MS analysis. It counts as ADME, organism-based. Details: time 24 hrs, dose 0.5 mg/kg, route iv. To be noted: in vivo.
Data set [5] is described as follows: Oral bioavailability in CD-1 mouse at 5 mg/kg measured after 24 hrs by LC-MS analysis. The note with it: in vivo. It counts as ADME, organism-based.
A short description of data set [6]: Half life in CD-1 mouse at 0.5 mg/kg, iv measured after 24 hrs by LC-MS analysis. It counts as ADME, organism-based. The note with it: in vivo.
Data set [7] can be described thus: AUC in CD-1 mouse at 5 mg/kg, po measured after 24 hrs by LC-MS analysis. It counts as ADME, organism-based. The note with it: in vivo. Details: dose 5 mg/kg, time 24 hrs, route po.
Data set [8] is described as follows: Tmax in CD-1 mouse at 5 mg/kg, po measured after 24 hrs by LC-MS analysis. To be noted: in vivo. It counts as ADME, organism-based.
Data set [9] in a line: Half life in CD-1 mouse at 5 mg/kg, po measured after 24 hrs by LC-MS analysis. It counts as ADME, organism-based. To be noted: in vivo.
Data set [10] can be described thus: Cmax in CD-1 mouse at 5 mg/kg, po measured after 24 hrs by LC-MS analysis. Details: time 24 hrs, dose 5 mg/kg, route po. The note with it: in vivo. In kind it is ADME, organism-based.

As usually defined, the half-life is the time needed for the level to fall by half in the phase considered. Higher therefore signals slow loss. In the case of `C[C@@H]1CNc2c(cccc2S(=O)(=O)N[C@@H](CCCNC(=N)N)C(=O)N2CC[C@@H](C)C[C@@H]2C(=O)O)C1`, the half-life in the data set “in vitro [1]”, in “in vitro [2]” and in the data set “in vitro [3]” was over 120 min each time.

`CC(C)(C)C(=O)n1nc(C2CCCNC2)cc1NCc1ccc(Cl)s1` (stereo unspecified) had a half-life in “in vitro [1]” of 910 min.

As for `O=C(c1ccsc1)n1nc(-c2ccccc2F)nc1NCc1cccs1`, the half-life in “in vitro [3]” was 69 min.

Turning to `CC(C)(CO)C(=O)n1nc(C2CCNCC2)c(F)c1NCc1ccc(Cl)s1`, the half-life in the data set “in vitro [1]” amounted to 44 min.

With `COc1ccccc1C(=O)n1nc(-c2ccccn2)nc1NCc1ccc(Cl)s1`, the values for the half-life in “in vitro [1]”, in the data set “in vitro [2]” and in “in vitro [3]” were 4.1 min, 1.5 min and 30 min, respectively.

A word on the AUC: it is the area under the concentration-time curve, a measure of exposure. The low end stands for less exposure, the high end for more exposure. In general, bioavailability refers to the share of a dose that reaches the circulation, judged against a reference dose that is usually intravenous. By Tmax is commonly meant the time at which the peak concentration occurs. For orientation: Cmax means the maximum level reached in the sampled fluid or tissue. Take `CC(C)(C)C(=O)n1nc(-c2ccc[nH]c2=O)cc1NCc1ccc(Cl)s1`: the results for the AUC at 24 h in data set [4] and in data set [7] were 300 ng·h/mL and 713 ng·h/mL, respectively. The compound also had a bioavailability in data set [5] of 22.8%. Besides, the half-life in “in vitro [1]” was 350 min; in data set [6], 42 min; in [9], 354 min. Moreover, the Tmax in data set [8] turned out to be 42 min. Moreover, in data set [10], the Cmax was 127 ng/mL.

`COc1ccccc1C(=O)n1nc(-c2ccccc2F)nc1NCc1cccs1`: the half-life in the data set “in vitro [3]” came to 48 min.

In the case of `CC(C)(C)C(=O)n1nc(-c2cccnn2)cc1NCc1ccc(Cl)s1`, the half-life in the data set “in vitro [3]” turned out to be 51 min.

Regarding `COc1ccccc1C(=O)n1nc(C2CCOCC2)cc1NCc1ccc(Cl)s1`, the half-life in the data set “in vitro [1]” was found to be 160 min.

`COc1ccccc1C(=O)n1nc(C2CCNCC2)cc1NCc1ccc(Cl)s1`: the half-life in the data set “in vitro [1]” came to 43 min.
